Measurements from PubChem BioAssay AID1259407 (Chemical Carcinogenesis Research Information System (CCRIS), 2018).
Calls of active or inactive are those of the source. How the calls were made is not given here.

Tested on: CCRIS mutagenicity, Ames/micronucleus/aberration tests
Experiment: CCRIS mutagenicity studies

With `O=[N+]([O-])c1ccc(/C=N\O)o1` the mutagenic call (Test System: E. COLI, Strain/Indicator: WP2 UVRA, Metabolic Activation: NONE, Method: SPOT) was “active; positive” and the mutagenic call (Test System: E. COLI, Strain/Indicator: WP2 UVRA, Metabolic Activation: NONE, Method: STANDARD PLATE) was “active; positive”.

`O=[N+]([O-])c1ccc2nscc2c1` was tested, and the mutagenic call (Test System: AMES SALMONELLA TYPHIMURIUM, Strain/Indicator: TA98, Metabolic Activation: NONE, Method: STANDARD PLATE) was “active; positive”, the mutagenic call (Test System: AMES SALMONELLA TYPHIMURIUM, Strain/Indicator: TA98, Metabolic Activation: S-9, Method: STANDARD PLATE) was “active; positive” and the mutagenic call (Test System: AMES SALMONELLA TYPHIMURIUM, Strain/Indicator: TA100, Metabolic Activation: NONE, Method: STANDARD PLATE) was “active; positive”. For the same molecule, the mutagenic call (Test System: AMES SALMONELLA TYPHIMURIUM, Strain/Indicator: TA100, Metabolic Activation: S-9, Method: STANDARD PLATE) was “active; positive”, the mutagenic call (Test System: AMES SALMONELLA TYPHIMURIUM, Strain/Indicator: TA1535, Metabolic Activation: NONE, Method: STANDARD PLATE) was “active; positive” and the mutagenic call (Test System: AMES SALMONELLA TYPHIMURIUM, Strain/Indicator: TA1535, Metabolic Activation: S-9, Method: STANDARD PLATE) was “active; positive”. The mutagenic call (Test System: AMES SALMONELLA TYPHIMURIUM, Strain/Indicator: TA1537, Metabolic Activation: NONE, Method: STANDARD PLATE) was “active; positive” and the mutagenic call (Test System: AMES SALMONELLA TYPHIMURIUM, Strain/Indicator: TA1537, Metabolic Activation: S-9, Method: STANDARD PLATE) was “active; positive”.

In the case of `CCCCCCC(O)C/C=C\CCCCCCCC(=O)OCC(COC(=O)CCCCCCC/C=C\CC(O)CCCCCC)OC(=O)CCCCCCC/C=C\CC(O)CCCCCC` (configuration not stated), the mutagenic call (Test System: AMES SALMONELLA TYPHIMURIUM, Strain/Indicator: TA97, Metabolic Activation: HAMSTER, LIVER, S-9, AROCLOR 1254 (10 OR 30%), Method: PREINCUBATION) is reported as “inactive; negative”, the mutagenic call (Test System: AMES SALMONELLA TYPHIMURIUM, Strain/Indicator: TA97, Metabolic Activation: NONE, Method: PREINCUBATION) is reported as “inactive; negative” and the mutagenic call (Test System: AMES SALMONELLA TYPHIMURIUM, Strain/Indicator: TA97, Metabolic Activation: RAT, LIVER, S-9, AROCLOR 1254 (10 OR 30%), Method: PREINCUBATION) is reported as “inactive; negative”. For the same molecule, the mutagenic call (Test System: AMES SALMONELLA TYPHIMURIUM, Strain/Indicator: TA98, Metabolic Activation: HAMSTER, LIVER, S-9, AROCLOR 1254 (10 OR 30%), Method: PREINCUBATION) was “inactive; negative”, the mutagenic call (Test System: AMES SALMONELLA TYPHIMURIUM, Strain/Indicator: TA98, Metabolic Activation: NONE, Method: PREINCUBATION) was “inactive; negative” and the mutagenic call (Test System: AMES SALMONELLA TYPHIMURIUM, Strain/Indicator: TA98, Metabolic Activation: RAT, LIVER, S-9, AROCLOR 1254 (10 OR 30%), Method: PREINCUBATION) was “inactive; negative”. The mutagenic call (Test System: AMES SALMONELLA TYPHIMURIUM, Strain/Indicator: TA100, Metabolic Activation: HAMSTER, LIVER, S-9, AROCLOR 1254 (10 OR 30%), Method: PREINCUBATION) was “inactive; negative”, the mutagenic call (Test System: AMES SALMONELLA TYPHIMURIUM, Strain/Indicator: TA100, Metabolic Activation: NONE, Method: PREINCUBATION) was “inactive; negative” and the mutagenic call (Test System: AMES SALMONELLA TYPHIMURIUM, Strain/Indicator: TA100, Metabolic Activation: RAT, LIVER, S-9, AROCLOR 1254 (10 OR 30%), Method: PREINCUBATION) was “inactive; negative”. For the same molecule, the mutagenic call (Test System: AMES SALMONELLA TYPHIMURIUM, Strain/Indicator: TA1535, Metabolic Activation: HAMSTER, LIVER, S-9, AROCLOR 1254 (10 OR 30%), Method: PREINCUBATION) was “inactive; negative”, the mutagenic call (Test System: AMES SALMONELLA TYPHIMURIUM, Strain/Indicator: TA1535, Metabolic Activation: NONE, Method: PREINCUBATION) was “inactive; negative” and the mutagenic call (Test System: AMES SALMONELLA TYPHIMURIUM, Strain/Indicator: TA1535, Metabolic Activation: RAT, LIVER, S-9, AROCLOR 1254 (10 OR 30%), Method: PREINCUBATION) was “inactive; negative”.
